The text below walks through data of ChEMBL document CHEMBL3608308, “Design, synthesis and antiproliferative activity of novel heterobivalent hybrids based on imidazo[2,1-b][1,3,4]thiadiazole and imidazo[2,1-b][1,3]thiazole scaffolds” (Eur J Med Chem, 2015).

Holding throughout (type): functional
The test system of one assay is L1210. Put plainly: Antiproliferative activity against mouse L1210 cells assessed as inhibition of cell proliferation incubated for 2 days by Coulter counter based assay. Conditions: L1210, 48 h.
The next assay has as its system FM3A. Put plainly: Antiproliferative activity against mouse FM3A cells assessed as inhibition of cell proliferation incubated for 2 days by Coulter counter based assay. Conditions: 48 h.
For another assay, the system named is CCRF-CEM. Put plainly: Antiproliferative activity against human CEM cells assessed as inhibition of cell proliferation incubated for 3 days by Coulter counter based assay. Conditions: 72 h.
For a further assay, the system named is HeLa. The assay can be described thus: Antiproliferative activity against human HeLa cells assessed as inhibition of cell proliferation incubated for 4 days by Coulter counter based assay. Conditions: 96 h.

The structures appear in SMILES notation.

Consider `Nc1cccc(-c2cn3c(-c4ccc(Cl)cc4)csc3n2)c1`, for which the 50% inhibitory concentration (IC50) with L1210 is 22 µM; in the assay on FM3A, 11 µM; with CCRF-CEM, 21 µM; in the assay with HeLa, 17 µM.
On the same counts, the results for `COc1ccc(-c2csc3nc(-c4cccc(N)c4)cn23)cc1` are 19 µM, 11 µM, 6.1 µM and 19 µM.
Regarding `Nc1cccc(-c2cn3nc(-c4cccs4)sc3n2)c1`, the IC50 with L1210, with FM3A, in the assay with CCRF-CEM and with HeLa was over 250 µM in each case.
Take `Nc1cccc(-c2cn3nc(-c4ccc(F)cc4)sc3n2)c1`: the IC50 was at least 250 µM in the assay with L1210, 33 µM with FM3A, at least 250 µM with CCRF-CEM and at least 250 µM in the assay with HeLa.
On to `CCc1ccc(-c2nn3cc(-c4cccc(N)c4)nc3s2)cc1`, for which the half-maximal inhibitory concentration (IC50) with L1210 was found to be 6 µM; in the assay with FM3A, 8.2 µM; with CCRF-CEM, 22 µM; with HeLa it was 8.1 µM.
Taken in the same sequence, the figures for `C=C(Br)C(=O)Nc1cccc(-c2cn3nc(-c4ccc(OCC)cc4)sc3n2)c1` were 0.79 µM, 1.1 µM, 1.4 µM and 1.1 µM.
On the same counts, the results for `C=C(Br)C(=O)Nc1cccc(-c2cn3c(-c4ccc(Cl)cc4)csc3n2)c1` are 1.9 µM, 1.1 µM, 2.2 µM and 3 µM.
Taken in the same sequence, the figures for `C=C(Br)C(=O)Nc1cccc(-c2cn3nc(Cc4ccc(Cl)cc4)sc3n2)c1` were 2.3 µM, 1.1 µM, 3.3 µM and 2.7 µM.
Turning to `Nc1cccc(-c2cn3c(-c4ccccc4)csc3n2)c1`, the half-maximal inhibitory concentration (IC50) was 85 µM in the assay with L1210, 34 µM with FM3A, 29 µM with CCRF-CEM and 60 µM with HeLa.
On the same counts, the results for `CCOc1ccc(-c2nn3cc(-c4cccc(N)c4)nc3s2)cc1` are 155 µM, at least 250 µM, over 250 µM and 94 µM.
Taken in the same sequence, the figures for `Nc1cccc(-c2cn3nc(Cc4ccccc4)sc3n2)c1` were 7.4 µM, 4.7 µM, 37 µM and 24 µM.
On the same counts, the results for `C=C(Br)C(=O)Nc1cccc(-c2cn3nc(Cc4ccccc4)sc3n2)c1` are 3 µM, 3 µM, 4.2 µM and 4.5 µM.
In the case of `C=C(Br)C(=O)Nc1cccc(-c2cn3nc(CCc4ccccc4)sc3n2)c1`, the IC50 with L1210 worked out at 2.2 µM; with FM3A it was 2.6 µM; with CCRF-CEM, 4.2 µM; with HeLa it was 3.3 µM.
`COc1ccc(Cc2nn3cc(-c4cccc(N)c4)nc3s2)cc1`: the 50% inhibitory concentration (IC50) in the assay with L1210 was 227 µM; in the assay on FM3A, 100 µM; in the assay on CCRF-CEM, at least 250 µM; in the assay on HeLa, 191 µM.
On the same counts, the results for `C=C(Br)C(=O)Nc1cccc(-c2cn3nc(-c4ccc(OC)cc4)sc3n2)c1` are 0.94 µM, 0.89 µM, 1.2 µM and 2.3 µM.
On the same counts, the results for `C=C(Br)C(=O)Nc1cccc(-c2cn3nc(-c4cccc(OC)c4)sc3n2)c1` are 0.58 µM, 0.5 µM, 1.2 µM and 1.1 µM.
Consider `Nc1cccc(-c2cn3nc(Cc4ccc(Cl)cc4)sc3n2)c1`, for which the IC50 with L1210 was found to be 16 µM; in the assay on FM3A, 6 µM; with CCRF-CEM, 42 µM; in the assay on HeLa, 25 µM.
In the case of `C=C(Br)C(=O)Nc1cccc(-c2cn3nc(-c4ccc(C)cc4)sc3n2)c1`, the IC50 in the assay on L1210 amounted to 0.92 µM; in the assay with FM3A, 1.2 µM; in the assay with CCRF-CEM it was 1.7 µM; in the assay on HeLa it was 2 µM.
On the same counts, the results for `Nc1cccc(-c2cn3nc(CCc4ccccc4)sc3n2)c1` are 31 µM, 29 µM, 30 µM and 242 µM.
On the same counts, the results for `C=C(Br)C(=O)Nc1cccc(-c2cn3c(-c4ccccc4)csc3n2)c1` are 1.3 µM, 1.3 µM, 2.8 µM and 3.4 µM.
On the same counts, the results for `COc1cccc(-c2nn3cc(-c4cccc(N)c4)nc3s2)c1` are over 250 µM, 29 µM, over 250 µM and 230 µM.
Turning to `Cc1ccc(-c2nn3cc(-c4cccc(N)c4)nc3s2)cc1`, the concentration for half-maximal inhibition (IC50) in the assay with L1210 was 4.8 µM; in the assay on FM3A, 5.8 µM; with CCRF-CEM, 5.9 µM; in the assay on HeLa, 8.9 µM.
Consider `COc1cccc(Cc2nn3cc(-c4cccc(N)c4)nc3s2)c1`, for which the IC50 came out at 21 µM with L1210, 10 µM in the assay with FM3A, 40 µM with CCRF-CEM and 24 µM with HeLa.
With `Nc1cccc(-c2cn3nc(-c4ccccc4)sc3n2)c1`, the IC50 in the assay on L1210 was 32 µM; in the assay with FM3A, 14 µM; in the assay with CCRF-CEM, 33 µM; with HeLa it was 26 µM.
On the same counts, the results for `C=C(Br)C(=O)Nc1cccc(-c2cn3nc(-c4ccccc4)sc3n2)c1` are 0.6 µM, 0.9 µM, 0.96 µM and 1.4 µM.
Taken in the same sequence, the figures for `C=C(Br)C(=O)Nc1cccc(-c2cn3nc(-c4ccc(CC)cc4)sc3n2)c1` were 2.2 µM, 3.3 µM, 3.4 µM and 3.2 µM.
On the same counts, the results for `COc1ccc(-c2nn3cc(-c4cccc(N)c4)nc3s2)cc1` are at least 250 µM, 74 µM, at least 250 µM and at least 250 µM.
As for `COc1ccc(-c2nn3cc(-c4cccc(N)c4)nc3s2)cc1OC`, the IC50 in the assay on L1210 was 16 µM; in the assay on FM3A, 13 µM; with CCRF-CEM, 14 µM; in the assay on HeLa, 26 µM.
Taken in the same sequence, the figures for `C=C(Br)C(=O)Nc1cccc(-c2cn3nc(Cc4ccc(OC)cc4)sc3n2)c1` were 1.4 µM, 0.85 µM, 2.3 µM and 2.3 µM.
For `C=C(Br)C(=O)Nc1cccc(-c2cn3nc(Cc4cccc(OC)c4)sc3n2)c1`, the half-maximal inhibitory concentration (IC50) with L1210 was found to be 2 µM; in the assay with FM3A, 1.1 µM; in the assay on CCRF-CEM it was 3.1 µM; in the assay with HeLa, 2.5 µM.
On the same counts, the results for `Nc1cccc(-c2cn3nc(-c4ccc(Cl)cc4)sc3n2)c1` are at least 250 µM, 160 µM, over 250 µM and 160 µM.
Taken in the same sequence, the figures for `C=C(Br)C(=O)Nc1cccc(-c2cn3nc(-c4ccc(Cl)cc4)sc3n2)c1` were 1.4 µM, 2 µM, 3.2 µM and 3 µM.
